Assay results taken from patent US20250250299A1, “MACROCYCLIC IMMUNOMODULATORS” (Bristol-Myers Squibb Company, priority 2022, published 2025).
Where a SMILES comes first, the peptide text is derived from it. Bridges are numbered along the chain shown (N, C = ends). [ ]: non-standard residue; d: D form. The star is where a group is joined. X1 = O=C(O)CCCCCCCCCCCCCCCCC(=O)N[C@@H](CCC(=O)NCCOCCOCCOCCOCCOCCOCCOCCOCCOCCOCCOCCn1cc(C*)nn1)C(=O)O; Phe(4-COOH) = N[C@@H](Cc1ccc(C(=O)O)cc1)C(=O)O; Bip = N[C@@H](Cc1ccc(-c2ccccc2)cc1)C(=O)O; Phe(3-Me) = Cc1cccc(C[C@H](N)C(=O)O)c1; C12 diacid = O=C(O)CCCCCCCCCCC(=O)*; 4Pal = N[C@@H](Cc1ccncc1)C(=O)O; Cha = N[C@@H](CC1CCCCC1)C(=O)O; Carboxymethyl = O=C(O)C*; NMeA = CN[C@@H](C)C(=O)O; Nle = CCCC[C@H](N)C(=O)O; Orn = NCCC[C@H](N)C(=O)O; Dab = NCC[C@H](N)C(=O)O; Abu = CC[C@H](N)C(=O)O; Dap = NC[C@H](N)C(=O)O

biological target: T1, human PD-1 (Jurkat-PD-1 cells; binding of PE-labeled human PD-L1-Ig) (Homo sapiens, UniProt Q15116); experiment: Jurkat-PD-1 Cell Binding High-Content Screening Assay; details: not given
T1 construct: expressed in transfected cells; host or cells: Jurkat (Jurkat-PD-1 / Jurkat-hPD-1)
Method: The ability of the compounds of formula (I) to bind to PD-1 was investigated using a Jurkat-PD-1 Cell Binding High-Content Screening Assay.
Phycoerythrin (PE) was covalently linked to the Ig epitope tag of human PD-L1-Ig and fluorescently-labeled PD-L1-Ig was used for binding studies with a Jurkat cell line over-expressing human PD-1 (Jurkat-PD-1). Briefly, 8×10^3 Jurkat-hPD-1 cells were seeded into 384 well plates in 20 μl of DIVEM supplemented with 10% fetal calf serum. 100 nl of compound was added to cells followed by incubation at 37° C. for 2 h. Then, 5 μl of PE-labeled PD-L1-Ig (20 nM final), diluted in DiVEM supplemented with 10 fetal calf serum. After 1 hour incubation, cells were fixed with […] in dPBS containing 10 µg/mL Hoechst 33342 and then washed 3× in 100 μl dPB S. Data was collected and processed using a Cell Insight NXT High Content Imager and associated software.

T1 sequence (Q15116 25-288): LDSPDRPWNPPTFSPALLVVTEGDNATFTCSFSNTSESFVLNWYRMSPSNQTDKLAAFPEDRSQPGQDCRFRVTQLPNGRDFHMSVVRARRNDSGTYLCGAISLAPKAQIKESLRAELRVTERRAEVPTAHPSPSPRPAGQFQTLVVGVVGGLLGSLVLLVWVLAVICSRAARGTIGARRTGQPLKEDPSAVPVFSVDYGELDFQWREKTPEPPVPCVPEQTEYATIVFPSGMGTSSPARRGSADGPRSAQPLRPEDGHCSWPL

**Q.** For CCCC[C@@H]1NC(=O)CSC[C@@H](C(=O)N[C@@H](CCN)C(N)=O)NC(=O)[C@H](CCC(=O)O)NC(=O)[C@H](C(C)C)NC(=O)[C@H](CC2CCCCC2)NC(=O)[C@H](CCN)NC(=O)[C@@H](CC(C)C)NC(=O)[C@H](CCCN)NC(=O)[C@H](Cc2ccc(OCc3cn(CCOCCOCCOCCOCCOCCOCCOCCOCCOCCOCCOCCNC(=O)CC[C@H](NC(=O)CCCCCCCCCCCCCCCCC(=O)O)C(=O)O)nn3)cc2)NC(=O)[C@H](Cc2ccc(-c3ccccc3)cc2)NC(=O)[C@H](Cc2ccc(C(=O)O)cc2)NC(=O)[C@H](Cc2cccc(C)c2)NC(=O)[C@H](CC(=O)O)NC(=O)[C@H](Cc2ccc(C(=O)O)cc2)NC1=O [Compound 1028] ({CH2CO}-[Nle][Phe(4-COOH)]D[Phe(3-Me)][Phe(4-COOH)][Bip]Y(X1)[Orn][dL][Dab][Cha]VEC[Dab]-NH2; thioether N-14), which IC50 is on record?
**A.** 430 nM

same assay, conditions: Jurkat cell line over-expressing human PD-1; compound 2 h at 37° C., then PE-labeled PD-L1-Ig 20 nM final, 1 hour; read-out: Jurkat hPD1 PDL1 IC50

**Q.** Which IC50 does the source give for CC[C@@H]1NC(=O)CSC[C@@H](C(=O)N[C@@H](CCN)C(N)=O)NC(=O)[C@H](CCC(=O)O)NC(=O)[C@H](C(C)C)NC(=O)[C@H](CC2CCCCC2)NC(=O)[C@H](CCN)NC(=O)[C@@H](CC(C)C)NC(=O)[C@H](CCCN)NC(=O)[C@H](Cc2ccc(OCC(=O)O)cc2)NC(=O)[C@H](Cc2ccc(-c3ccccc3)cc2)NC(=O)[C@H](Cc2ccc(OCc3cn(CCOCCOCCOCCOCCOCCOCCOCCOCCOCCOCCOCCNC(=O)CC[C@H](NC(=O)CCCCCCCCCCCCCCCCC(=O)O)C(=O)O)nn3)cc2)NC(=O)[C@H](Cc2cccc(C)c2)NC(=O)[C@H](CC(=O)O)NC(=O)[C@H](Cc2ccc(OCC(=O)O)cc2)NC1=O [Compound 1017] ({CH2CO}-[Abu]Y(Carboxymethyl)D[Phe(3-Me)]Y(X1)[Bip]Y(Carboxymethyl)[Orn][dL][Dab][Cha]VEC[Dab]-NH2; thioether N-14) here?
**A.** 90 nM

**Q.** Which IC50 does the source give for Cc1cccc(C[C@@H]2NC(=O)[C@H](CC(=O)O)NC(=O)[C@H](Cc3ccc(OCC(=O)O)cc3)NC(=O)[C@H](CCCNC(=N)N)NC(=O)CSC[C@@H](C(=O)N[C@@H](CCN)C(N)=O)NC(=O)[C@H](CCC(=O)O)NC(=O)[C@H](C(C)C)NC(=O)[C@H](CC3CCCCC3)NC(=O)[C@H](CCN)NC(=O)[C@@H](CC(C)C)NC(=O)[C@H](CCCN)NC(=O)[C@H](Cc3ccc(OCc4cn(CCOCCOCCOCCOCCOCCOCCOCCOCCOCCOCCOCCNC(=O)CC[C@H](NC(=O)CCCCCCCCCCCCCCCCC(=O)O)C(=O)O)nn4)cc3)NC(=O)[C@H](Cc3ccc(-c4ccccc4)cc3)NC(=O)[C@H](Cc3ccc(OCC(=O)O)cc3)NC2=O)c1 [Compound 1002] ({CH2CO}-RY(Carboxymethyl)D[Phe(3-Me)]Y(Carboxymethyl)[Bip]Y(X1)[Orn][dL][Dab][Cha]VEC[Dab]-NH2; thioether N-14) here?
**A.** 140 nM

**Q.** With CC(C)C[C@H]1NC(=O)[C@H](C)N(C)C(=O)[C@H](CCCCNC(=O)CCCCCCCCCCC(=O)O)NC(=O)[C@H](Cc2ccc(-c3ccccc3)cc2)NC(=O)[C@H](C(C)C)NC(=O)[C@H](Cc2c[nH]c3ccccc23)NC(=O)[C@H](CC(=O)O)NC(=O)[C@H](Cc2ccncc2)NC(=O)[C@H](Cc2ccc(OCC(=O)O)cc2)NC(=O)CSC[C@@H](C(N)=O)NC(=O)[C@H](CO)NC(=O)[C@H](C(C)C)NC(=O)[C@H](CC2CCCCC2)NC(=O)[C@H](CC(N)=O)NC1=O [Compound 1039] ({CH2CO}-Y(Carboxymethyl)[4Pal]DWV[Bip]K(C12 diacid)[NMeA][dL]N[Cha]VSC-NH2; thioether N-14) as the compound, how does the IC50 read?
**A.** 870 nM

**Q.** With CC(C)C[C@H]1NC(=O)[C@H](C)N(C)C(=O)[C@H](C(C)C)NC(=O)[C@H](Cc2ccc(-c3ccccc3)cc2)NC(=O)[C@H](C(C)C)NC(=O)[C@H](Cc2c[nH]c3ccccc23)NC(=O)[C@H](CC(=O)O)NC(=O)[C@H](Cc2ccncc2)NC(=O)[C@H](Cc2ccc(OCC(=O)O)cc2)NC(=O)CSC[C@@H](C(N)=O)NC(=O)[C@H](CCCCNC(=O)CCCCCCCCCCC(=O)O)NC(=O)[C@H](C(C)C)NC(=O)[C@H](CC2CCCCC2)NC(=O)[C@H](CC(N)=O)NC1=O [Compound 1045] ({CH2CO}-Y(Carboxymethyl)[4Pal]DWV[Bip]V[NMeA][dL]N[Cha]VK(C12 diacid)C-NH2; thioether N-14) as the compound, how does the IC50 read?
**A.** 180 nM

**Q.** How did the IC50 turn out when Cc1cccc(C[C@@H]2NC(=O)[C@H](CC(=O)O)NC(=O)[C@H](Cc3ccc(OCC(=O)O)cc3)NC(=O)[C@H](CCCNC(=N)N)NC(=O)CSC[C@@H](C(N)=O)NC(=O)[C@H]([C@@H](C)O)NC(=O)[C@H](C(C)C)NC(=O)[C@H](CC3CCCCC3)NC(=O)[C@H](CCN)NC(=O)[C@@H](CC(C)C)NC(=O)[C@H](C)N(C)C(=O)[C@H](CCCNC(=O)CCCCCCCCCCC(=O)O)NC(=O)[C@H](Cc3ccc(-c4ccccc4)cc3)NC(=O)[C@H](Cc3ccc(O)cc3)NC2=O)c1 [Compound 1036] ({CH2CO}-RY(Carboxymethyl)D[Phe(3-Me)]Y[Bip][Orn](C12 diacid)[NMeA][dL][Dab][Cha]VTC-NH2; thioether N-14) was run?
**A.** 130 nM

**Q.** Which IC50 does the source give for Cc1cccc(C[C@@H]2NC(=O)[C@H](CC(=O)O)NC(=O)[C@H](Cc3ccc(OCC(=O)O)cc3)NC(=O)[C@H]([C@@H](C)O)NC(=O)CSC[C@@H](C(=O)N[C@@H](CCN)C(N)=O)NC(=O)[C@H](CCC(=O)O)NC(=O)[C@H](C(C)C)NC(=O)[C@H](CC3CCCCC3)NC(=O)[C@H](CCN)NC(=O)[C@@H](CC(C)C)NC(=O)[C@H](CCCN)NC(=O)[C@H](Cc3ccc(OCC(=O)O)cc3)NC(=O)[C@H](Cc3ccc(-c4ccccc4)cc3)NC(=O)[C@H](Cc3ccc(OCc4cn(CCOCCOCCOCCOCCOCCOCCOCCOCCOCCOCCOCCNC(=O)CC[C@H](NC(=O)CCCCCCCCCCCCCCCCC(=O)O)C(=O)O)nn4)cc3)NC2=O)c1 [Compound 1019] ({CH2CO}-TY(Carboxymethyl)D[Phe(3-Me)]Y(X1)[Bip]Y(Carboxymethyl)[Orn][dL][Dab][Cha]VEC[Dab]-NH2; thioether N-14) here?
**A.** 140 nM

**Q.** How did the IC50 turn out when Cc1cccc(C[C@@H]2NC(=O)[C@H](CC(=O)O)NC(=O)[C@H](Cc3ccc(OCC(=O)O)cc3)NC(=O)[C@H](Cc3c[nH]cn3)NC(=O)CSC[C@@H](C(=O)N[C@@H](CCN)C(N)=O)NC(=O)[C@H](Cc3ccc(OCc4cn(CCOCCOCCOCCOCCOCCOCCOCCOCCOCCOCCOCCNC(=O)CC[C@H](NC(=O)CCCCCCCCCCCCCCCCC(=O)O)C(=O)O)nn4)cc3)NC(=O)[C@H](C(C)C)NC(=O)[C@H](CC3CCCCC3)NC(=O)[C@H](CCN)NC(=O)[C@@H](CC(C)C)NC(=O)[C@H](CCCN)NC(=O)[C@H](Cc3ccc(OCC(=O)O)cc3)NC(=O)[C@H](Cc3ccc(-c4ccccc4)cc3)NC(=O)[C@H](Cc3ccc(OCC(=O)O)cc3)NC2=O)c1 [Compound 1015] ({CH2CO}-HY(Carboxymethyl)D[Phe(3-Me)]Y(Carboxymethyl)[Bip]Y(Carboxymethyl)[Orn][dL][Dab][Cha]VY(X1)C[Dab]-NH2; thioether N-14) was run?
**A.** 100 nM

**Q.** How did the IC50 turn out when Cc1cccc(C[C@@H]2NC(=O)[C@H](CC(=O)O)NC(=O)[C@H](Cc3ccc(OCC(=O)O)cc3)NC(=O)[C@H](CN)NC(=O)CSC[C@@H](C(=O)N[C@@H](CCN)C(N)=O)NC(=O)[C@H](CCC(=O)O)NC(=O)[C@H](C(C)C)NC(=O)[C@H](CC3CCCCC3)NC(=O)[C@H](CCN)NC(=O)[C@@H](CC(C)C)NC(=O)[C@H](CCCN)NC(=O)[C@H](Cc3ccc(OCc4cn(CCOCCOCCOCCOCCOCCOCCOCCOCCOCCOCCOCCNC(=O)CC[C@H](NC(=O)CCCCCCCCCCCCCCCCC(=O)O)C(=O)O)nn4)cc3)NC(=O)[C@H](Cc3ccc(-c4ccccc4)cc3)NC(=O)[C@H](Cc3ccc(OCC(=O)O)cc3)NC2=O)c1 [Compound 1001] ({CH2CO}-[Dap]Y(Carboxymethyl)D[Phe(3-Me)]Y(Carboxymethyl)[Bip]Y(X1)[Orn][dL][Dab][Cha]VEC[Dab]-NH2; thioether N-14 (inferred)) was run?
**A.** 160 nM
